The METLIN SMRT retention time set (Domingo-Almenara et al. 2019)

Experiment: gradient 5% acetonitrile 3 min, to 50% in 2 min, to 85% in 15 min, held 3 min, 100 µL/min
Details: column: Zorbax Extend-C18 2.1 x 50 mm; eluents: water / acetonitrile, 0.1% formic acid
In short: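 Retention time was recorded from adduct peaks, which were picked computationally and each inspected manually. Pure standards ran in mixtures of ~100 molecules on HPLC coupled to a quadrupole time-of-flight mass spectrometer, in positive and negative ionization mode, through a Zorbax Extend-C18 column (2.1 × 50 mm, 1.8 μm) at 100 μL/min. Eluents were water and acetonitrile, each with 0.1% formic acid.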
An RP-LC retention time of 868 s was found for CCc1ccc(NC(=O)Cc2nc(C)c(C(=O)NCC(C)C)s2)cc1 in this work. An RP-LC retention time of 584 s was found for O=C(NCCn1ncccc1=O)c1c(F)cccc1F in this work. An RP-LC retention time of 790 s was found for CN1C(=O)c2cccnc2Sc2cc(NC(=O)c3cccc(F)c3)ccc21 in this work. An RP-LC retention time of 577 s was found for O=C(NCCN1CCCCCC1)c1nc(-c2ccnc(N3CCCCC3)c2)no1 in this work. An RP-LC retention time of 1200 s was found for CCc1sc(NC(=O)c2cc(OC)cc(OC)c2)nc1-c1ccccc1 in this work. An RP-LC retention time of 669 s was found for Cc1ccc2c(c1)N(C)N=C(C(=O)N1CCOCC1)S2(=O)=O in this work. An RP-LC retention time of 987 s was found for O=C(NCc1nc(-c2ccc(Oc3ccc(Cl)cc3)cc2)no1)c1ccco1 in this work. An RP-LC retention time of 660 s was found for CN(C)CCNC(=O)C1CCc2sc(C(=O)N3CCCC3)cc2C1 (stereo not given) in this work. An RP-LC retention time of 880 s was found for CCN1C(=O)Cc2c(C)nc(-c3ccc(OC)cc3)nc21 in this work. An RP-LC retention time of 658 s was found for COc1ccc(OCc2noc(CNC(=O)CSc3nnnn3C)n2)cc1 in this work. An RP-LC retention time of 783 s was found for CCc1ccc(CNC(=O)Cn2ccc3c(=O)n(CC)c(=O)n(CC)c32)cc1 in this work. An RP-LC retention time of 651 s was found for Cc1ccc(CNC(=O)NCCCn2c(-c3ccncc3)nc3cccnc32)cc1 in this work. An RP-LC retention time of 962 s was found for Cc1cc(C)cc(N2C(=O)N(CC(=O)N3CCOc4ccc(C)cc43)C3CS(=O)(=O)CC32)c1 (stereo not given) in this work. An RP-LC retention time of 865 s was found for CCc1ccc(CNC(=O)CCc2nc(N3CCCC3)c3c(C)noc3n2)cc1 in this work. An RP-LC retention time of 737 s was found for CCc1c(C(=O)O)nnn1-c1ccc(C)cc1F in this work. An RP-LC retention time of 599 s was found for O=C(Cc1ccccc1F)N1CCC(Nc2ncnc3c2CCC3)C1 (stereo not given) in this work. An RP-LC retention time of 1050 s was found for O=C(Nc1ccc(Br)cc1F)N1CCc2nc(-c3ccc(F)cc3)ncc2C1 in this work. An RP-LC retention time of 645 s was found for CC(C)CN(Cc1cccnc1)C1CN(S(=O)(=O)c2cccnc2)C1 in this work. An RP-LC retention time of 797 s was found for COc1cc(Cl)c(NC(=O)C2CCN(S(=O)(=O)c3cn(C(C)C)cn3)CC2)c(OC)c1 in this work. An RP-LC retention time of 637 s was found for CCCNc1cc(N2CCCC(CCC(=O)N3CCN(c4ncccn4)CC3)C2)ncn1 (stereo not given) in this work. An RP-LC retention time of 536 s was found for Clc1ccc(Nc2nc(NCCCn3ccnc3)nc3nc[nH]c23)cc1 in this work. An RP-LC retention time of 778 s was found for COc1ccccc1CNC(=O)C1CCN(c2ccc(SCc3ccccc3)nn2)CC1 in this work. An RP-LC retention time of 705 s was found for CCn1c(C2CCN(S(=O)(=O)c3cccc4nsnc34)C2)nc2cccnc21 (stereo not given) in this work. An RP-LC retention time of 649 s was found for COc1ccc(CNC(=O)NCCc2cn(C)c3ncccc23)cc1 in this work. An RP-LC retention time of 764 s was found for COc1cccc(CC(=O)N2C[C@@H]3C[C@H]2C[C@@H]3NS(=O)(=O)c2ccccc2)c1 in this work. An RP-LC retention time of 781 s was found for CC(=O)Nc1cc2c(cc1Sc1ccccc1Cl)n(C)c(=O)n2C in this work. An RP-LC retention time of 1240 s was found for COc1cccc(C2Cn3nnc(-c4nc(-c5ccc(Br)cc5)no4)c3CO2)c1 (stereo not given) in this work. An RP-LC retention time of 812 s was found for CCn1c(CCC(=O)NCc2ccc(Cl)cc2)nc2ccccc2c1=O in this work. An RP-LC retention time of 669 s was found for CC(=O)N1CCN(Cc2nc(-c3ccc(N4CCSCC4)nc3)no2)CC1 in this work. An RP-LC retention time of 864 s was found for Cc1ccc2[nH]cc(CCN3CC(C(=O)Nc4nnc(CC(C)(C)C)s4)CC3=O)c2c1 (stereo not given) in this work. An RP-LC retention time of 688 s was found for COCCc1noc(-c2cnc3nc(C)ccc3c2Nc2ccc(F)cc2)n1 in this work. An RP-LC retention time of 639 s was found for O=C(CN1C(=O)C2CCCCN2c2ccc(C(=O)N3CCCC3)cc21)NCCCN1CCCCCC1 (stereo not given) in this work. An RP-LC retention time of 570 s was found for OC1(c2ccccn2)CCOC2(CCN(Cc3ccc(F)cc3Cl)CC2)C1 (stereo not given) in this work. An RP-LC retention time of 947 s was found for Cc1nc(N2CCN(C(=O)Nc3cccc(C(F)(F)F)c3)CC2)cc(-n2cccn2)n1 in this work. An RP-LC retention time of 1040 s was found for Cc1ccccc1-c1noc(Cc2nnc(-c3ccc(F)cc3)o2)n1 in this work. An RP-LC retention time of 702 s was found for Cc1cc2[nH]c(C(=O)Nc3cc(F)ccc3F)c(CN3CCCC3)c2s1 in this work. An RP-LC retention time of 621 s was found for CCn1ccc(C(=O)Nc2c3c(nn2C)CCC3)n1 in this work. An RP-LC retention time of 785 s was found for Cc1ccc2c(NC(=O)C(c3ccccc3)c3ccccc3)noc2n1 in this work. An RP-LC retention time of 744 s was found for CCCNC(=O)C1CCCN(c2nc3ncn(CC(=O)Nc4cc(F)cc(F)c4)c(=O)c3s2)C1 (stereo not given) in this work. An RP-LC retention time of 808 s was found for O=C(Cn1nc2n(c(=O)c1=O)CCN2c1ccccc1)Nc1ccc(OC(F)(F)F)cc1 in this work. An RP-LC retention time of 898 s was found for CC(C)CN1C(=O)CCc2cc(NS(=O)(=O)c3cccc(F)c3)ccc21 in this work. An RP-LC retention time of 963 s was found for COc1ccc(-c2nc(-c3cn(Cc4ccc(F)cc4)nn3)no2)cc1 in this work. An RP-LC retention time of 854 s was found for COCC(=O)Oc1c(Sc2ccc(C)cc2)c(C)nn1-c1ccccc1 in this work. An RP-LC retention time of 709 s was found for Cc1nc(OCC(=O)Nc2ccc(F)cc2)c2ccccc2n1 in this work. An RP-LC retention time of 667 s was found for O=C(COc1ccc(F)cc1)NCC1(O)CCCC1 in this work. An RP-LC retention time of 1190 s was found for CCc1ccc(N2C(=O)C3N=NN(c4ccc(Br)c(C)c4)C3C2=O)cc1 (stereo not given) in this work. An RP-LC retention time of 605 s was found for CN1CCCN(C(=O)C2CN(S(=O)(=O)c3cccnc3)CC23CCCCC3)CC1 (stereo not given) in this work. An RP-LC retention time of 756 s was found for CCCNC(=O)C1CCN(c2nc3ccsc3c(=O)n2Cc2ccccc2)CC1 in this work. An RP-LC retention time of 842 s was found for CN1CCCc2cc(CCNC(=O)C(=O)NCCC3=CCCCC3)ccc21 in this work. An RP-LC retention time of 776 s was found for Cc1ccc(-c2cnn3c(N4CCN(c5cccc(C)n5)CC4)cc(C)nc23)cc1 in this work. An RP-LC retention time of 1080 s was found for COc1ccccc1NC(=O)N1CCCC1c1nc(-c2ccccc2C)no1 (stereo not given) in this work. An RP-LC retention time of 658 s was found for CCn1cnnc1CC1CCN(S(=O)(=O)Cc2ccccc2F)C1 (stereo not given) in this work. An RP-LC retention time of 1020 s was found for CN(Cc1ccccc1)C(=O)Cn1c(=O)c2cnc(-c3ccccc3)nc2n(C)c1=O in this work. An RP-LC retention time of 576 s was found for CCCN1CCN(C(=O)c2nc3ccccn3c2-c2ccsc2)CC1 in this work. An RP-LC retention time of 726 s was found for Cc1ccccc1NC(=O)C1CCCN(S(=O)(=O)c2cn(C(C)C)cn2)C1 (stereo not given) in this work. An RP-LC retention time of 931 s was found for O=C(NCc1ccccc1Cl)c1csc(C(=O)NC2CCCC2)n1 in this work. An RP-LC retention time of 1080 s was found for COc1ccccc1-c1c(C(F)(F)F)oc2cc(OC(=O)C3CC3)ccc2c1=O in this work. An RP-LC retention time of 712 s was found for CCCCN(C)C(=O)Cn1c(C2CC(=O)N(c3ccc(OC)cc3)C2)nc2ccccc21 (stereo not given) in this work. An RP-LC retention time of 637 s was found for Cc1cccnc1NC(=O)c1csnn1 in this work. An RP-LC retention time of 656 s was found for CCCNC(=O)C1CCCN(c2ccc(SCC(=O)Nc3ccc(CC)cc3)nn2)C1 (stereo not given) in this work. An RP-LC retention time of 849 s was found for Cc1noc(/C=C\c2ccc(S(=O)(=O)N3CCN(c4ncccn4)CC3)cc2)c1NC(=O)C1CC1 in this work. An RP-LC retention time of 1070 s was found for CCCNC(=O)Cc1c(C)nn(-c2nc(-c3ccc(C)cc3)cs2)c1C in this work. An RP-LC retention time of 865 s was found for COc1cc(OC)cc(N2C(=O)C3N=NN(Cc4nc(-c5ccc(OC)cc5OC)no4)C3C2=O)c1 (stereo not given) in this work. An RP-LC retention time of 796 s was found for Cn1cccc1CN(C(=O)C1CCC1)C1CC1 in this work. An RP-LC retention time of 594 s was found for Cc1ccc(-c2ccc(N3CCCC(C(=O)NCCN4CCC(C)CC4)C3)nn2)cc1 (stereo not given) in this work. An RP-LC retention time of 824 s was found for CCc1ccc(NC(=O)C2CCCN(c3ncnc4c3nc3n4CCCCC3)C2)cc1 (stereo not given) in this work. An RP-LC retention time of 560 s was found for Cc1cc(C(=O)N2CCc3nn(C)c(=O)n3CC2)n[nH]1 in this work. An RP-LC retention time of 595 s was found for CCCCNC(=O)c1cc(NC(=O)CC)cc2nc(C)ccc12 in this work. An RP-LC retention time of 640 s was found for CN(C)C(=O)c1ccc2c(c1)nnn2CCNC(=O)Nc1ccc(F)cc1 in this work. An RP-LC retention time of 780 s was found for Cc1cc(NC(=O)CSc2cc(-c3ccccc3)ncn2)no1 in this work. An RP-LC retention time of 715 s was found for Cc1[nH]c(C(=O)N2CCC(CC(=O)NCCCOC(C)C)CC2)c(C)c1C in this work. An RP-LC retention time of 641 s was found for CC(=O)Nc1ccc(C(=O)N2CCN(c3cc(-c4cccs4)[nH]n3)CC2)cc1 in this work. An RP-LC retention time of 807 s was found for CC(Cc1ccco1)NC(=O)C1CCN(S(=O)(=O)c2ccc3c(c2)sc(=O)n3C)CC1 (stereo not given) in this work. An RP-LC retention time of 599 s was found for O=C1CCc2cc(NC(=O)C3CC3)ccc2N1 in this work. An RP-LC retention time of 955 s was found for CC(C(=O)Nc1nc(-c2ccccc2)cs1)N1C(=O)C2C3C=CC(C3)C2C1=O (stereo not given) in this work. An RP-LC retention time of 961 s was found for Cc1ccc(-c2noc(C3CCCN3C(=O)c3cncc(Br)c3)n2)cc1 (stereo not given) in this work. An RP-LC retention time of 938 s was found for COc1ccc(S(=O)(=O)N2CCCC(C(=O)Nc3ccc4c(c3)OCCO4)C2)cc1Cl (stereo not given) in this work. An RP-LC retention time of 745 s was found for COCCN1CCn2cc(S(=O)(=O)Nc3cc(C)cc(C)c3)cc2C1=O in this work. An RP-LC retention time of 873 s was found for CC(C)NC(=O)c1ccc(OCC2CCN(C(=O)c3ccc(F)c(F)c3)CC2)cc1 in this work. An RP-LC retention time of 670 s was found for CCOC(=O)c1ccc(NC(=O)N(Cc2cccs2)C2CCN(CC)CC2)cc1 in this work. An RP-LC retention time of 728 s was found for Cn1cc(C(=O)NCCN2CCCCC2)c(S(=O)(=O)N2CCN(c3ccc(Cl)cc3)CC2)n1 in this work. An RP-LC retention time of 951 s was found for COc1ccc(Cl)cc1Nc1ccnc2c1c(=O)n(C)c(=O)n2C in this work. An RP-LC retention time of 616 s was found for CCOC(=O)c1noc2nc(C)nc(N3CCN(Cc4ccccc4)CC3)c12 in this work. An RP-LC retention time of 623 s was found for O=C1CCN(C(=O)C2CCN(C(=O)c3ccco3)CC2)CCCCCCN1 in this work. An RP-LC retention time of 693 s was found for O=C(Nc1nccs1)C1CCCN(c2ccc3cc(S(=O)(=O)N4CCCC4)ccc3n2)C1 (stereo not given) in this work. An RP-LC retention time of 1160 s was found for CCc1noc(-c2cccn2Cc2cc(F)cc(F)c2)n1 in this work. An RP-LC retention time of 961 s was found for COC(=O)c1c(C)[nH]c(C(=O)N2CCCC(C(=O)N3CCN(c4cc(C)ccc4C)CC3)C2)c1C (stereo not given) in this work. An RP-LC retention time of 615 s was found for Cn1c(=O)n(CCN2CCOCC2)c(=O)c2c1nc1n2CCCN1c1ccccc1 in this work. An RP-LC retention time of 888 s was found for COc1ccc(-n2c(=O)n(C)c(=O)c3cc(C(=O)NC(C)c4ccc(F)cc4)cnc32)cc1 (stereo not given) in this work. An RP-LC retention time of 653 s was found for Cc1ccc(C)c(N2CCN(C(=O)c3nc4cccnc4n(C)c3=O)CC2)c1 in this work.
